Test results: US20160159808A1, “HETEROCYCLIC COMPOUND” (TAKEDA PHARMACEUTICAL COMPANY LIMITED, priority 2013, published 2016)

Columns and labels:
Male C57BL/6 mice = experiment: Contextual fear conditioning test, MK-801-induced deficits; assay type: in vivo; conditions: 30 mg/kg p.o. 60 min before test, MK-801 (maleate) 0.08 mg/kg s.c. 30 min before test, n=10, FIG. 1
Experimental: Improvement effect on MK-801 ((5S,10R)-5-methyl-10,11-dihydro-5H-5,10-epiminodibenzo[a,d][7]annulene)-induced disorder in contextual fear conditioning test.
Male C57BL/6 mice were purchased from CLEA Japan, Inc. They were used for an experiment after a habituation period of at least one week after carrying them in the animal experimental facility. They were bred in the animal experimental facility with environment in which 12-hours light-dark cycle was performed, humidity and temperature were controlled, and free water drinking and feeding were allowed. Handling of experimental animals and experimental procedure of this study were approved by the Experimental Animal Ethics Committee of Takeda Pharmaceutical Company Limited.
A test compound was suspended in 0.5% methylcellulose solution at a dose of 30 mg/kg, and orally administered. MK-801 (maleate) (Sigma-Aldrich, St Louis, Mo.) was dissolved in saline at a dose of 0.08 mg/kg, and subcutaneously administered. All drugs were administered to mice at a dose of 10 mL/kg.
Contextual fear conditioning test is widely used as memory and learning test system depending on the hippocampus and amygdala. The improvement effect of test compounds on MK-801-induced deficits was investigated by contextual fear conditioning test. The test compounds and MK-801 (maleate) were administered 60 min and 30 min, respectively, before the test. 0.5% methylcellulose and saline were administered to the control groups 60 min and 30 min, respectively, before the test. 0.5% methylcellulose and MK-801 (maleate) were administered to the vehicle groups 60 min and 30 min, respectively, before the test. […] In the test session on day 2 of the experiment, mice were placed in the same chamber for 7 minutes, and freezing was measured during that period. The freezing was calculated as a percentage of freezing rates during measuring period with use of an automatic analysis software manufactured by the O'Hara & Co., Ltd. All data were shown as the mean+standard error (n=10). […]

human PDE2A3 enzyme = molecular target: T1, human PDE2A3 enzyme (Homo sapiens, UniProt O00408); experiment: PDE Enzyme Inhibitory Assay (SPA, [3H]cGMP substrate); assay type: biochemical; conditions: compound 1 μM; [3H]cGMP 77 nM; 60 min at room temperature; read-out: inhibitory rate (%) (1 μM)
T1 construct: Human PDE2A3 full-length gene was transduced into Sf9; His-tag; made in house; host or cells: Sf9 insect cells
T1 sequence (O00408 whole entry): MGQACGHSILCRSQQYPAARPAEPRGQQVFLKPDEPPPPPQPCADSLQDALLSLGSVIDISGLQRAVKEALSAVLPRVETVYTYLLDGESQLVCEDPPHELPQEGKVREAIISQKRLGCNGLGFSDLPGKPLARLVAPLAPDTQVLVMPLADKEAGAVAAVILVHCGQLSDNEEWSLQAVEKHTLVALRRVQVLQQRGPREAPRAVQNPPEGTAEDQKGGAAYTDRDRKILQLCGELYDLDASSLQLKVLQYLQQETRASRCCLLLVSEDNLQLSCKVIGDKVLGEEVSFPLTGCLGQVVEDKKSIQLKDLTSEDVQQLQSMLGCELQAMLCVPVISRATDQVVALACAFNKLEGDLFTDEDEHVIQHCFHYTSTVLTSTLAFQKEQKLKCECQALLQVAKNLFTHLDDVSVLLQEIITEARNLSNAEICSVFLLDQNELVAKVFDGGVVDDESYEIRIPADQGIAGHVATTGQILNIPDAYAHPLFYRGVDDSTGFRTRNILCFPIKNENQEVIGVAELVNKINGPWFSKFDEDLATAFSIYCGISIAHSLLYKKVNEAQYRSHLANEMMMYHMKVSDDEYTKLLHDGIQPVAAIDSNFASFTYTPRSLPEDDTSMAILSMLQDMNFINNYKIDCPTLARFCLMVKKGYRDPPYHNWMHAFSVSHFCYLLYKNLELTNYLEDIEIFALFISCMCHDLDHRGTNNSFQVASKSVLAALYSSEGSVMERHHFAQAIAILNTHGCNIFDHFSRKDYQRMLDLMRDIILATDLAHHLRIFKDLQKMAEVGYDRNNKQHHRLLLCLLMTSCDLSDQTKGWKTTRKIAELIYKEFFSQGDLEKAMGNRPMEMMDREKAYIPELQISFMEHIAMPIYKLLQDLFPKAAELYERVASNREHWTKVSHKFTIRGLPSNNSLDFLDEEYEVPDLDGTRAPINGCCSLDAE
Experimental: PDE Enzyme Inhibitory Assay Human PDE2A3 full-length gene was transduced into Sf9, and human PDE2A3 enzyme was purified by His-tag affinity column and gel filtration. The enzyme was stored at −70° C. until use. PDE activity was measured using a SPA (Scintillation Proximity Assay) (GE Healthcare). To evaluate the inhibitory activity of the compound, 10 μl of serial diluted compounds were reacted with 20 μl of PDE enzyme in assay buffer (50 mM HEPES-NaOH, 8.3 mM MgCl2, 1.7 mM EGTA, 0.1% BSA (pH 7.4)) for 30 min. at room temperature. Final concentration of DMSO in the reaction solution was 1 percent. Compounds were tested in duplicate in 96-well half-area plates (Corning) or 384-well OptiPlate (PerkinElmer). To start the reaction, 10 μl of substrate [^3H] cGMP (final concentration 77 nM, PerkinElmer) was added to a total volume of 40 μl. After reaction for 60 min at room temperature, 20 μl of 20 mg/mL yttrium SPA beads containing zinc sulfate was added to terminate the PDE reaction. After being settled for further 1 hour, the assay plates were counted in a scintillation counter (PerkinElmer) to allow calculation of inhibition rate. Inhibition rate was calculated on the basis of 0% control wells with enzyme and DMSO, and 100% control wells without enzyme.

Row | SMILES | inhibition at 1 µM (human PDE2A3 enzyme) | improvement effect on MK-801-induced deficits in contextual fear conditioning test (freezing) (Male C57BL/6 mice)
1 | Cc1ncn(-c2nc3c(C(=O)N[C@@H](c4ccc(OC(F)(F)F)cc4)C(C)(C)O)cnn3cc2C)n1 [Example 161, N-((1S)-2-hydroxy-2-methyl-1-(4-(trifluoromethoxy)phenyl)propyl)-6-methyl-5-(3-methyl-1H-1,2,4-triazol-1-yl)pyrazolo[1,5-a]pyrimidine-3-carboxamide] | 100% | improvement effect on MK-801-induced deficits was shown
2 | Cc1cn(-c2nc3c(C(=O)N[C@@H](c4ccc(OC(F)(F)F)cc4)C(C)(C)O)cnn3cc2C)nn1 [Example 80, N-((1S)-2-hydroxy-2-methyl-1-(4-(trifluoromethoxy)phenyl)propyl)-6-methyl-5-(4-methyl-1H-1,2,3-triazol-1-yl)pyrazolo[1,5-a]pyrimidine-3-carboxamide] | 100% | improvement effect on MK-801-induced deficits was shown
3 | CC1(C)CCN(c2ccn3ncc(C(=O)N[C@@H](c4ccc(OC(F)(F)F)cc4)C(C)(C)O)c3n2)C1=O [Example 135, 5-(3,3-dimethyl-2-oxopyrrolidin-1-yl)-N-((1S)-2-hydroxy-2-methyl-1-(4-(trifluoromethoxy)phenyl)propyl)pyrazolo[1,5-a]pyrimidine-3-carboxamide] | 100% | –
4 | Cc1cn2ncc(C(=O)N[C@@H](c3ccc(OC(F)(F)F)cc3)C(C)(C)O)c2nc1-n1cnc(C(F)(F)F)c1 [Example 79, N-((1S)-2-hydroxy-2-methyl-1-(4-(trifluoromethoxy)phenyl)propyl)-6-methyl-5-(4-(trifluoromethyl)-1H-imidazol-1-yl)pyrazolo[1,5-a]pyrimidine-3-carboxamide] | 101% | –
5 | CC(C)(O)[C@@H](NC(=O)c1ccc2cncc(-c3ccccc3)c2n1)c1ccc(OC(F)(F)F)cc1 [Example 164, N-((1S)-2-hydroxy-2-methyl-1-(4-(trifluoromethoxy)phenyl)propyl)-8-phenyl-1,6-naphthyridine-2-carboxamide] | 97% | –

Continued, in another order:

Row | inhibition at 1 µM (human PDE2A3 enzyme) | SMILES | improvement effect on MK-801-induced deficits in contextual fear conditioning test (freezing) (Male C57BL/6 mice)
6 | 100% | Cc1ccc(-c2ccn3ncc(C(=O)N[C@@H](c4ccc(OC(F)(F)F)cc4)C(C)(C)O)c3n2)cn1 [Example 69, N-((1S)-2-hydroxy-2-methyl-1-(4-(trifluoromethoxy)phenyl)propyl)-5-(6-methylpyridin-3-yl)pyrazolo[1,5-a]pyrimidine-3-carboxamide] | improvement effect on MK-801-induced deficits was shown
7 | 99% | COC[C@@H](NC(=O)c1cnn2cc(C)cnc12)c1ccc(OC(F)(F)F)c(F)c1 [Example 12, N-((1S)-1-(3-fluoro-4-(trifluoromethoxy)phenyl)-2-methoxyethyl)-6-methylpyrazolo[1,5-a]pyrimidine-3-carboxamide] | –
8 | 100% | CC(C)(O)[C@@H](NC(=O)c1cnn2ccc(-c3ccccc3C#N)nc12)c1ccc(OC(F)(F)F)c(F)c1 [Example 101, 5-(2-cyanophenyl)-N-((1S)-1-(3-fluoro-4-(trifluoromethoxy)phenyl)-2-hydroxy-2-methylpropyl) pyrazolo[1,5-a]pyrimidine-3-carboxamide] | –
9 | 98% | COCC(NC(=O)c1cnn2ccc(N3CCOCC3)nc12)c1ccc(OC(F)(F)F)c(F)c1 (stereo not shown) [Example 38, N-(1-(3-fluoro-4-(trifluoromethoxy)phenyl)-2-methoxyethyl)-5-(morpholin-4-yl)pyrazolo[1,5-a]pyrimidine-3-carboxamide] | –
10 | 100% | COC[C@@H](NC(=O)c1cc(=O)[nH]c2cc(OC)cnc12)c1ccc(OC(F)(F)F)c(F)c1 [Example 152, N-((1S)-1-(3-fluoro-4-(trifluoromethoxy)phenyl)-2-methoxyethyl)-7-methoxy-2-oxo-1,2-dihydro-1,5-naphthyridine-4-carboxamide] | –
